Experimental data reported in ChEMBL document CHEMBL5137134, “Developing the Natural Prenylflavone Artocarpin from Artocarpus hirsutus as a Potential Lead Targeting Pathogenic, Multidrug-Resistant Staphylococcus aureus, Persisters and Biofilms with No Detectable Resistance” (J Nat Prod, 2022).
Converted amounts (≈) assume the structure as drawn. The source made the active and inactive calls. No cut-off for these calls is given here. Peptide text beside a SMILES is read from it.

Columns and labels:
Staphylococcus aureus [1] = assay: microbe, parasite or virus in culture; settings: ATCC 29213
Description: Antibacterial activity against Staphylococcus aureus ATCC 29213 assessed as reduction in bacterial growth incubated for 16 to 18 hrs by broth microdilution method

Staphylococcus aureus [2] = assay: Synergistic antibacterial activity against Staphylococcus aureus ATCC 29213 assessed as reduction in bacterial growth incubated for 24 hrs in presence of artocarpin by checkerboard method; type: functional
Staphylococcus aureus [3] = assay: Bactericidal activity against Staphylococcus aureus ATCC 29213 assessed as decrease in intracellular ATP level at 2.5 times MIC after 1 hr by ATP bioluminescence assay; type: functional, organism-based
Staphylococcus aureus [4] = assay: Bactericidal activity against Staphylococcus aureus ATCC 29213 assessed as increase in extracellular ATP level at 2.5 times MIC after 1 hr by ATP bioluminescence assay; type: functional, organism-based
Acinetobacter baumannii [5] = assay: Antibacterial activity against Acinetobacter baumannii BAA 1605 assessed as reduction in bacterial growth incubated for 16 to 18 hrs by broth microdilution method; type: functional; settings: time 16-18 hrs
Escherichia coli [6] = assay: Antibacterial activity against Escherichia coli ATCC 25922 assessed as reduction in bacterial growth incubated for 16 to 18 hrs by broth microdilution method; type: functional; settings: time 16-18 hrs
Staphylococcus aureus [7] = assay: Antibacterial activity against Staphylococcus aureus ATCC 29213 infected in Swiss mouse skin infection model assessed as reduction in skin bacterial load at 2 % dose administered twice daily for 4 days; type: functional; settings: time 4 day
Staphylococcus aureus [8] = assay: Post antibiotic effect against Staphylococcus aureus ATCC 29213 assessed as time required for 1 log10 increase in CFU at 1 time MIC incubated for 1 hr followed by replacement with drug free medium and measured every 1 hr (reference value: 2 hrs); type: functional
Staphylococcus aureus [9] = assay: Antibiofilm activity against Staphylococcus aureus ATCC 29213 assessed as reduction in preformed bacterial biofilm mass at 1 time MIC incubated for 24 hrs by crystal violet staining based microtiter plate reader assay; type: functional; parameters: scale not given: the % may be the effect or the level left
Enterococcus = assay: Antibacterial activity against Enterococcus NR 31903 assessed as reduction in bacterial growth incubated for 16 to 18 hrs by broth microdilution method; type: functional; settings: time 16-18 hrs
Staphylococcus aureus [10] = assay: Antibacterial activity against Staphylococcus aureus ATCC 29213 infected in mouse J774A.1 cells assessed as reduction in intracellular bacterial cells at 5 times MIC incubated for 24 hrs followed by re-plating on TSA plate and measured after 18 to 24 hrs; type: functional
Pseudomonas aeruginosa = assay: Antibacterial activity against Pseudomonas aeruginosa ATCC 27853 assessed as reduction in bacterial growth incubated for 16 to 18 hrs by broth microdilution method; type: functional; settings: time 16-18 hrs
[11] = Induction of resistance in Staphylococcus aureus ATCC 29213 assessed as increase in MIC treated over 35 serial passages by resistant development assay; type: functional
Staphylococcus aureus [12] = assay: Post antibiotic effect against Staphylococcus aureus ATCC 29213 assessed as time required for 1 log10 increase in CFU at 10 times MIC incubated for 1 hr followed by replacement with drug free medium and measured every 1 hr (reference value: 2 hrs); type: functional
Klebsiella pneumoniae = assay: Antibacterial activity against Klebsiella pneumoniae BAA 1705 assessed as reduction in bacterial growth incubated for 16 to 18 hrs by broth microdilution method; type: functional; settings: time 16-18 hrs
Staphylococcus aureus [13] = assay: Post antibiotic effect against Staphylococcus aureus ATCC 29213 at 10 times MIC incubated for 1 hr followed by replacement with drug free medium and measured every 1 hr (reference value: 0 hr); type: functional
Staphylococcus aureus [14] = assay: Post antibiotic effect against Staphylococcus aureus ATCC 29213 at 1 time MIC incubated for 1 hr followed by replacement with drug free medium and measured every 1 hr (reference value: 0 hr); type: functional
Staphylococcus aureus [15] = assay: Antibacterial activity against Staphylococcus aureus ATCC 29213 at 1 time MIC after 24 hrs by time kill assay; type: functional
Acinetobacter baumannii [16] = assay: Antibacterial activity against Acinetobacter baumannii BAA 1605 assessed as reduction in bacterial growth incubated for 16 to 18 hrs in presence of PMBN by broth microdilution method; type: functional; settings: time 16-18 hrs
Escherichia coli [17] = assay: Antibacterial activity against Escherichia coli ATCC 25922 assessed as reduction in bacterial growth incubated for 16 to 18 hrs in presence of PMBN by broth microdilution method; type: functional; settings: time 16-18 hrs

`CCCCCCCCCC(=O)N[C@@H](Cc1c[nH]c2ccccc12)C(=O)N[C@H](CC(N)=O)C(=O)N[C@@H](CC(=O)O)C(=O)N[C@@H]1C(=O)NCC(=O)N[C@@H](CCCN)C(=O)N[C@@H](CC(=O)O)C(=O)N[C@H](C)C(=O)N[C@@H](CC(=O)O)C(=O)NCC(=O)N[C@H](CO)C(=O)N[C@@H]([C@H](C)CC(=O)O)C(=O)N[C@@H](CC(=O)c2ccccc2N)C(=O)O[C@@H]1C` showed an MIC (Staphylococcus aureus [1]) of 1 µg/mL (≈ 0.617 µM) and an MIC (Staphylococcus aureus [2]) of 0.5 µg/mL.
For `CC[C@H](C)[C@H](NC(=O)CN)C(=O)NCC(=O)N[C@@H](C)C(=O)N[C@H](C(=O)N[C@@H](CC(C)C)C(=O)N[C@@H](CCCCN)C(=O)N[C@H](C(=O)N[C@@H](CC(C)C)C(=O)N[C@H](C(=O)N[C@H](C(=O)NCC(=O)N[C@@H](CC(C)C)C(=O)N1CCC[C@H]1C(=O)N[C@@H](C)C(=O)N[C@@H](CC(C)C)C(=O)N[C@H](C(=O)N[C@@H](CO)C(=O)N[C@@H](Cc1c[nH]c2ccccc12)C(=O)N[C@H](C(=O)N[C@@H](CCCCN)C(=O)N[C@@H](CCCNC(=N)N)C(=O)N[C@@H](CCCCN)C(=O)N[C@@H](CCCNC(=N)N)C(=O)N[C@@H](CCC(N)=O)C(=O)N[C@@H](CCC(N)=O)C(N)=O)[C@@H](C)CC)[C@@H](C)CC)[C@@H](C)O)[C@@H](C)O)C(C)C)C(C)C`, the Activity (Staphylococcus aureus [3]) was “Active” and the Activity (Staphylococcus aureus [4]) was “Active”.
`CC[C@H](C)CCCCC(=O)N[C@@H](CCN)C(=O)N[C@H](C(=O)N[C@@H](CCN)C(=O)N[C@H]1CCNC(=O)[C@H]([C@@H](C)O)NC(=O)[C@H](CCN)NC(=O)[C@H](CCN)NC(=O)[C@H](CC(C)C)NC(=O)[C@@H](Cc2ccccc2)NC(=O)[C@H](CCN)NC1=O)[C@@H](C)O` (HELM PEPTIDE1{[CC[C@H](C)CCCCC(=O)[*:2]].[Dab].T.[Dab].[Dab].[Dab].[dF].L.[Dab].[Dab].T}$PEPTIDE1,PEPTIDE1,5:R3-11:R2$$$V2.0) showed an MIC (Acinetobacter baumannii [5]) of over 64 µg/mL and an MIC (Escherichia coli [6]) of over 64 µg/mL.
`CC(C)(O/N=C(\C(=O)N[C@@H]1C(=O)N2C(C(=O)[O-])=C(C[n+]3ccccc3)CS[C@H]12)c1csc(N)n1)C(=O)O` [CEFTAZIDIME] showed an MIC (Staphylococcus aureus [1]) of 16 µg/mL (≈ 29.3 µM) and an MIC (Staphylococcus aureus [2]) of 16 µg/mL.
`CC(=O)O[C@H]1C[C@@]2(C)[C@@H](C[C@@H](O)[C@H]3[C@@]4(C)CC[C@@H](O)[C@@H](C)[C@@H]4CC[C@@]32C)/C1=C(\CCC=C(C)C)C(=O)O` [FUSIDIC ACID] gave an Activity (Staphylococcus aureus [7]) of 1.8 log10CFU/g.
With `C[C@H]1COc2c(N3CCN(C)CC3)c(F)cc3c(=O)c(C(=O)O)cn1c23.C[C@H]1COc2c(N3CCN(C)CC3)c(F)cc3c(=O)c(C(=O)O)cn1c23.O` [LEVOFLOXACIN] the Time (Staphylococcus aureus [8]) was 2.5 h, the Activity (Staphylococcus aureus [9]) was 15% and the MIC (Enterococcus) was over 64 µg/mL. It also gave an Activity (Staphylococcus aureus [10]) of 0.45 log10CFU/ml, an MIC (Pseudomonas aeruginosa) of 0.5 µg/mL and an MIC [11] of 32 µg/mL. For the same compound, the MIC (Staphylococcus aureus [1]) was 0.125 µg/mL, the Time (Staphylococcus aureus [12]) was 3.5 h and the MIC (Klebsiella pneumoniae) was 64 µg/mL. For the same compound, the PAE (Staphylococcus aureus [13]) was 1.5 h, the MIC (Staphylococcus aureus [2]) was 0.25 µg/mL and the PAE (Staphylococcus aureus [14]) was 0.5 h.
`CC(=O)NC[C@H]1CN(c2ccc(N3CCOCC3)c(F)c2)C(=O)O1` [LINEZOLID] showed an Activity (Staphylococcus aureus [15]) of 1.6 log10CFU/ml and an MIC (Staphylococcus aureus [2]) of 1 µg/mL.
In the case of `C[C@@H](O)[C@H]1C(=O)N2C(C(=O)O)=C(S[C@@H]3CN[C@H](C(=O)N(C)C)C3)[C@H](C)[C@H]12` [MEROPENEM], the MIC (Staphylococcus aureus [1]) is reported as 1 µg/mL (≈ 2.61 µM) and the MIC (Staphylococcus aureus [2]) is reported as 2 µg/mL.
With `CN(C)c1ccc(O)c2c1C[C@H]1C[C@H]3[C@H](N(C)C)C(O)=C(C(N)=O)C(=O)[C@@]3(O)C(O)=C1C2=O` [MINOCYCLINE] the MIC (Staphylococcus aureus [1]) was 0.25 µg/mL (≈ 0.546 µM) and the MIC (Staphylococcus aureus [2]) was 0.125 µg/mL.
With `CO[C@H]1/C=C/O[C@@]2(C)Oc3c(C)c(O)c4c(O)c(c(/C=N/N5CCN(C)CC5)c(O)c4c3C2=O)NC(=O)/C(C)=C\C=C\[C@H](C)[C@H](O)[C@@H](C)[C@@H](O)[C@@H](C)[C@H](OC(C)=O)[C@@H]1C` [RIFAMPIN] the MIC (Acinetobacter baumannii [16]) was 0.03 µg/mL, the MIC (Acinetobacter baumannii [5]) was 2 µg/mL (≈ 2.43 µM) and the MIC (Escherichia coli [6]) was 8 µg/mL (≈ 9.72 µM). The MIC (Staphylococcus aureus [1]) was 0.0078 µg/mL (≈ 0.00948 µM), the MIC (Escherichia coli [17]) was 0.06 µg/mL and the MIC (Staphylococcus aureus [2]) was 0.0078 µg/mL.
`CN[C@H](CC(C)C)C(=O)N[C@H]1C(=O)N[C@@H](CC(N)=O)C(=O)N[C@H]2C(=O)N[C@H]3C(=O)N[C@H](C(=O)N[C@H](C(=O)O)c4cc(O)cc(O)c4-c4cc3ccc4O)[C@H](O)c3ccc(c(Cl)c3)Oc3cc2cc(c3O[C@@H]2O[C@H](CO)[C@@H](O)[C@H](O)[C@H]2O[C@H]2C[C@](C)(N)[C@H](O)[C@H](C)O2)Oc2ccc(cc2Cl)[C@H]1O` [VANCOMYCIN] showed an MIC (Acinetobacter baumannii [16]) of 64 µg/mL, a Time (Staphylococcus aureus [8]) of 3 h and an MIC (Acinetobacter baumannii [5]) of 256 µg/mL (≈ 177 µM). The Activity (Staphylococcus aureus [9]) was 4%, the MIC (Escherichia coli [6]) was 512 µg/mL (≈ 353 µM) and the Time (Staphylococcus aureus [12]) was 3.5 h. The PAE (Staphylococcus aureus [13]) was 1.5 h, the MIC (Escherichia coli [17]) was 128 µg/mL and the PAE (Staphylococcus aureus [14]) was 1 h.
GENTAMICIN gave an MIC (Staphylococcus aureus [2]) of 0.06 µg/mL.
